Consider four molecules from ChEMBL document CHEMBL1158111, “Bohemamines from a marine-derived Streptomyces sp” (J Nat Prod, 2006).

This test deals with HCT-116. Kind of test: Growth inhibition of human HCT116 cells. Type of test: functional, cell-based.

SMILES strings stand for the structures. Active and inactive are the calls of the source. The rule behind the calls is not given here.

On to `CC(C)=CC(=O)NC1=CC(=O)[C@]2(C)[C@@H]3O[C@@H]3[C@H](C)N12`, for which the outcome was inactive. As for `CC(C)=CC(=O)NC1=CC(=O)[C@]2(C)C[C@H](O)[C@H](C)N12`, the outcome was inactive. Take `CC(C)=CC(=O)NC1=CC(=O)[C@]2(C)[C@H](O)C[C@H](C)N12`: the result was inactive. Regarding `CC(C)=CC(=O)NC1=CC(=O)[C@]2(C)[C@H](O)[C@@H](Cl)[C@H](C)N12`, the result was inactive.
